Columns and labels:
SH-SY5Y cells [1] = test: TCA cycle flux in SHSY-5Y cells; type: cell-based, human; conditions: FLVCR1a-silenced vs scramble shRNA SH-SY5Y cells
Description: (§1) Results were expressed as nmol NAD*/min/mg mitochondrial protein for complex I, nmol reduced cytochrome c/min/mg mitochondrial protein for complexes II-III, nmol oxidized cytochrome c/min/mg mitochondrial protein for complex IV. Data represent mean±SEM, n=3. For statistical analyses, an unpaired Student's t-test was used; *=p<0.05, **=p<0.01, *=p<0.001. […] Results are expressed as nmol/mg mitochondrial proteins. Data represent mean±SEM, n=3. For statistical analyses, an unpaired Student's t-test was used; *=p<0.05. […] Results are expressed as pmol CO2/h/mg protein. Data represent mean±SEM, n=3. For statistical analyses, an unpaired Student's t-test was used; **=p<0.01. […] Results were expressed as nmol NAD*/min/mg mitochondrial protein for complex I, nmol reduced cytochrome c/min/mg mitochondrial protein for complexes II-III, nmol oxidized cytochrome c/min/mg mitochondrial protein for complex IV. […] Results are expressed as nmol/mg mitochondrial proteins. […] Results are expressed as pmol CO2/h/mg protein. […] (H) TCA cycle enzymes activities are reported in boxes and expressed as mU/mg mitochondrial proteins. […] Results were expressed as nmol NAD^+/min/mg mitochondrial protein for complex I, nmol reduced cytochrome c/min/mg mitochondrial protein for complexes II-III, nmol oxidized cytochrome c/min/mg mitochondrial protein for complex IV. […] Results are expressed as nmol/mg mitochondrial proteins. […]

SH-SY5Y cells [2] = test: Activity of mitochondrial ETC complexes I-IV in SHSY-5Y cells; type: cell-based, human; conditions: FLVCR1a-silenced vs scramble shRNA SH-SY5Y cells
Description: as §1

FLVCR1a shRNA: shRNA specifically down-regulating FLVCR1a without targeting FLVCR1b; pLKO.1 lentiviral clone TRCN0000059599, antisense SEQ ID No.: 2 (antisense TTGCTAATGATGCTGTACTGG; sense CCAGTACAGCATCATTAGCAA)
TCA cycle flux (SH-SY5Y cells [1]): increased TCA cycle flux
activity of ETC complexes (SH-SY5Y cells [2]): enhanced activity of ETC complexes

From patent publication US20240285670A1, “THERAPEUTIC TREATMENT OF TUMORS BY BLOCKING THE HEME SYNTHESIS-EXPORT AXIS” (Università degli Studi di Torino, priority 2021, published 2024)
